Data published in ChEMBL document CHEMBL5465560, “Selectivity Literature for EUbOPEN Chemogenomic Library” (2024).

Tests used:
[1] = molecular target: Mitogen-activated protein kinase 3 (Homo sapiens, UniProt P27361); assay: Selectivity interaction (KinomeScan (DiscoverX)) EUB0001049a MAPK3; details: at 1 µM
[2] = molecular target: Interferon-induced, double-stranded RNA-activated protein kinase (Homo sapiens) (UniProt P19525); assay: Selectivity interaction (Kinase panel (KiNativ target engagement assay in Jurkat cells)) EUB0001635a EIF2AK2; format: cell-based; details: Selectivity number of off-targets 0.0, Selectivity number of targets 233.0, Source Knowledge https://www.sciencedirect.com/science/article/pii/S2451945619300674?via%3Dihub, at 1 µM
Sequence of Interferon-induced, double-stranded RNA-activated protein kinase (Homo sapiens) (P19525 whole entry): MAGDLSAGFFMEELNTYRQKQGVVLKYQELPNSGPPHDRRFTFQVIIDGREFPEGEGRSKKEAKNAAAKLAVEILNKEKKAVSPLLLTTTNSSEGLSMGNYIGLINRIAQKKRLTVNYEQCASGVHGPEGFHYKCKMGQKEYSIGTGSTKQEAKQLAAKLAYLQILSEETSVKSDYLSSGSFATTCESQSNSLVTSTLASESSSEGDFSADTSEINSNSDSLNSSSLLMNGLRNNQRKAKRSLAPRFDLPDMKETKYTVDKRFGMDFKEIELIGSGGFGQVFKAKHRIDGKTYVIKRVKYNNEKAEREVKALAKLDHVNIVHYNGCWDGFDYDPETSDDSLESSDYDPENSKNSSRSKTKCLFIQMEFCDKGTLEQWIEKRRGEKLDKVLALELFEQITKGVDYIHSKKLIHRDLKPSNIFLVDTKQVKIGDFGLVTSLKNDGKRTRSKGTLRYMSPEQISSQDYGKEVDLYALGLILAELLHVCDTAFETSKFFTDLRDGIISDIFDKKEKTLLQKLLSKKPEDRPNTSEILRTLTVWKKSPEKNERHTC

[3] = molecular target: T1, MAP kinase-activated protein kinase 5 (Homo sapiens) (UniProt Q8IW41); assay: Selectivity interaction (Kinase panel (Eurofins)) EUB0001564a MAPKAPK5; details: at 1 µM
T1 sequence (whole entry): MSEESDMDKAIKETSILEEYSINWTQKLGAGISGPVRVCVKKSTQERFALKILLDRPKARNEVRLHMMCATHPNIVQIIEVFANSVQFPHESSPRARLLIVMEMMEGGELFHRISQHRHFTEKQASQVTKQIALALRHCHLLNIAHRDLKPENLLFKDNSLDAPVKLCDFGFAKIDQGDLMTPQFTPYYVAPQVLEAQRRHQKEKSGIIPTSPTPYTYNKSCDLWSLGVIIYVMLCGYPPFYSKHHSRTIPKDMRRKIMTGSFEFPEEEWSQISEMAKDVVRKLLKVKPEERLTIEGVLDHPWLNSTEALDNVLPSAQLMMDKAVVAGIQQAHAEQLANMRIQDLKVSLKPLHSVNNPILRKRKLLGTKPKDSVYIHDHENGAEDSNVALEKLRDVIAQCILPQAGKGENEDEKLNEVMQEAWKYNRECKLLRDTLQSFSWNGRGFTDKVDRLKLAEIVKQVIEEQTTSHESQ

[4] = molecular target: T2, Serine/threonine-protein kinase tousled-like 1 (Homo sapiens) (UniProt Q9UKI8); assay: Selectivity interaction (ActivX KiNativ screen (kinase selectivity in THP-1 cell lysates)) EUB0000639a TLK1; format: subcellular; details: lysate
T2 sequence (whole entry): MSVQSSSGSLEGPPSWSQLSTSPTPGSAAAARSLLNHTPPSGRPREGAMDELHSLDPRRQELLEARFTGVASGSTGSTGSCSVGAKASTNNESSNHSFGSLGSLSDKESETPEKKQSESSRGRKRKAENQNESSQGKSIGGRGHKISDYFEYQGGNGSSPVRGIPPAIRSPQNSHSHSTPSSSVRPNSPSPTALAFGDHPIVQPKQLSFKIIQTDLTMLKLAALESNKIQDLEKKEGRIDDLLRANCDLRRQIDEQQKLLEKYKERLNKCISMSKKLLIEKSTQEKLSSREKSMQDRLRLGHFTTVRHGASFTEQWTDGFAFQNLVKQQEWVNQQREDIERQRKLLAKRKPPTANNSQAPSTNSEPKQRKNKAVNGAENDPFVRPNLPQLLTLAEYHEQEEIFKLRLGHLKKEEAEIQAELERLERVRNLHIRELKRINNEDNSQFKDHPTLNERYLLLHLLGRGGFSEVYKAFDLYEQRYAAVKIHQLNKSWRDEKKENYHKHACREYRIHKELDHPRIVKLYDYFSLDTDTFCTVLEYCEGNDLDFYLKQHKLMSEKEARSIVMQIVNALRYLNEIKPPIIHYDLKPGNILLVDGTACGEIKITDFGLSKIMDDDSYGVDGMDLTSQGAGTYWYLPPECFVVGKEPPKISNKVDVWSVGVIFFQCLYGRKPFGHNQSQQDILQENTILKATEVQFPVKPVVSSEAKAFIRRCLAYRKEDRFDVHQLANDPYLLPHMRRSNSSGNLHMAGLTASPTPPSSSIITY

[5] = molecular target: Glycogen synthase kinase-3 beta (Homo sapiens, UniProt P49841); assay: Selectivity interaction (KinomeScan (DiscoverX)) EUB0000695a GSK3B; details: at 100 nM
Sequence of Glycogen synthase kinase-3 beta (P49841 whole entry, looked up): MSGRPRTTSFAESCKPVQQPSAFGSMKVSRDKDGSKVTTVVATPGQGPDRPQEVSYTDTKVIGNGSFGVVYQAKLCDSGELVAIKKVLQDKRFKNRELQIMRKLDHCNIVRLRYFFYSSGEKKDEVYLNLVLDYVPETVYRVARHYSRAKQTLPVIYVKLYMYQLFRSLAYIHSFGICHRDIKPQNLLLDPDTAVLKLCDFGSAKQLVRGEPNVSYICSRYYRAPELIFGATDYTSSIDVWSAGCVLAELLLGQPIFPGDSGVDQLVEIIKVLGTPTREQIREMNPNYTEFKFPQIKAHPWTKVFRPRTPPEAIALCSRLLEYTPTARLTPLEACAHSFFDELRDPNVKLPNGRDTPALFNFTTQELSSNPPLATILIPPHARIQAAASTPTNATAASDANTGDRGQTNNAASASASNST

[6] = molecular target: T3, 5-hydroxytryptamine receptor 2C (Homo sapiens) (UniProt P28335); assay: Selectivity interaction (Panel of kinases, GPCRs, ion channels and transporters (enzymatic assay)) EUB0000223bCl HTR2C
T3 sequence (whole entry): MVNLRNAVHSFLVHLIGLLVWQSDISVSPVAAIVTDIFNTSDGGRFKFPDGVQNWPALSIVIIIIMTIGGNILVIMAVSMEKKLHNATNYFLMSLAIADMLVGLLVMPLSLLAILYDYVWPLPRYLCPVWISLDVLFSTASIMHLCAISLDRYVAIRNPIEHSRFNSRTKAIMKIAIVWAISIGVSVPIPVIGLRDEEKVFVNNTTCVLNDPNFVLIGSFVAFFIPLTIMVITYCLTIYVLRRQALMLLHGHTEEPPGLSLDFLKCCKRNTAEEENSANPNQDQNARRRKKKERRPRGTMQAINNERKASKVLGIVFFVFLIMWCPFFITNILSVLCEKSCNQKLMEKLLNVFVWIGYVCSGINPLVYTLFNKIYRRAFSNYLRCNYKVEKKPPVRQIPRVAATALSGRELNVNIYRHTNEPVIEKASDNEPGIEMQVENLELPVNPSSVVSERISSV

[7] = molecular target: T4, Rhodopsin kinase GRK1 (Homo sapiens) (UniProt Q15835); assay: Selectivity interaction (LanthaScreen Eu Kinase Binding Assay) EUB0001632a GRK1; details: at 10 µM
T4 sequence (whole entry): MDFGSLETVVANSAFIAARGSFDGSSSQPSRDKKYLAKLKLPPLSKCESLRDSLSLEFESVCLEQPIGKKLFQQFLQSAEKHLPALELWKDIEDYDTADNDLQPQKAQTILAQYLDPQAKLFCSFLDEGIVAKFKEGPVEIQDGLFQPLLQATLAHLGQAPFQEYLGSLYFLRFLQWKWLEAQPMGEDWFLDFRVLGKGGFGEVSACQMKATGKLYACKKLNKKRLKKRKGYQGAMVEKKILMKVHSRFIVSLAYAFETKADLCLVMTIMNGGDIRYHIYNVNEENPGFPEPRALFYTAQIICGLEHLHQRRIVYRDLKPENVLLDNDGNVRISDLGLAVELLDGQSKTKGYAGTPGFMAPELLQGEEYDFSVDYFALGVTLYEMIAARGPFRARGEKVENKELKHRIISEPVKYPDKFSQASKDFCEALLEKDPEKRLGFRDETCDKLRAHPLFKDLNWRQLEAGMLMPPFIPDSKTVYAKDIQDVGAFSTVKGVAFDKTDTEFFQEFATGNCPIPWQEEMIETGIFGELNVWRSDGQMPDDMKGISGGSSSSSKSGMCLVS

Sequence of Mitogen-activated protein kinase 3 (P27361 whole entry): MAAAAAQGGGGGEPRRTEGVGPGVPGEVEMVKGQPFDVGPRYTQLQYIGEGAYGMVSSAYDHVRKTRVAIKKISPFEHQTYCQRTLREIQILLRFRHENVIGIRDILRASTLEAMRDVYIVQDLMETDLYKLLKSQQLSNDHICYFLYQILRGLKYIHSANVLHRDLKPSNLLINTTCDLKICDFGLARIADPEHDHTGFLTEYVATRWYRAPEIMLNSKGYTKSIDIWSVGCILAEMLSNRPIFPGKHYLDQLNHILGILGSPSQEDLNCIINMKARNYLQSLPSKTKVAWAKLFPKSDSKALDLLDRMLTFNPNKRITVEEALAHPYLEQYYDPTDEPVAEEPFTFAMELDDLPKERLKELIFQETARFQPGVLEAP

SMILES: COc1cc(Nc2nc(C)cc(-c3cnn4nc(OC)ccc34)n2)cc(C(F)(F)F)c1
- % of control [1]: 98%

SMILES: C=CC(=O)Nc1ccc(C(=O)Nc2[nH]nc3c2CN(C(=O)N[C@H](CN(C)C)c2ccccc2)C3(C)C)cc1
- % of engagement [2]: -5.3%

SMILES: CC[C@@H](Nc1c(C#N)c(-c2ccc(-c3cccc(C)c3F)cc2)nc2cnccc12)C(=O)O [BAY-091]
- % of inhibition [3]: 23.6%

SMILES: CC[C@@H]1[C@H](F)C(=O)N[C@@H]1COc1nccc2cc(C(N)=O)c(OC)cc12 [ZIMLOVISERTIB]
- % of inhibition ([4]; at 0.01 µM): 10.2%
- % of inhibition ([4]; at 0.04 µM): 21.8%
- % of inhibition ([4]; at 0.2 µM): 4.8%
- % of inhibition ([4]; at 1 µM): 54%
- % of inhibition ([4]; at 5 µM): 62.2%

SMILES: Cc1cc(F)c(C(=O)Nc2cccc(-c3nncn3C(C)C)n2)cc1-n1cnc(C2CC2)c1
- % of control [5]: 100%

SMILES: COc1cc(C(=O)N2CC[C@@H](O)[C@@H](N)C2)cc2nc(-c3cc4ccccc4n3CC3CC3)n(C)c12
- pXC50 [6]: < 4.4 M

SMILES: Cn1cc(-n2cnc3c(NCc4nc5cc(Cl)c(Cl)cc5[nH]4)nc(N4CCOCC4)nc32)cn1
- % of inhibition [7]: -16.5%
